Series [1] has as its system Normal human fibroblasts [CCD45SK (ATCC CRL 1506)]. As to the kind of experiment: Response to βFGF: procollagenase production by normal human fibroblasts CCD45SK (Test Examples 1-3). Conditions: for activity at 1000 µM: Homo sapiens, Fibroblast, read-out: Response to βFGF Increment; for Procollagenase Production: mean ± SD, n = 3. The class given is cell-based. Here is the method:
In the following tests, the procollagenase production was quantified in terms of the collagenase activity as obtained through activation with trypsin.
It is known that βFGF promotes procollagenase production. In the following tests, therefore, the βFGF activity increment as attained by the compound added was calculated from the procollagenase production, relative to the control using purified water in place of the test compound.
Normal human fibroblasts [CCD45SK (ATCC CRL 1506) as prepared from the skin of a person] were suspended at a cell density of 1×10^5 cells/ml in the MEM medium, comprising 10% (V/V) FBS and 1% (V/V) non-essential amino acids (produced by Dai-Nippon Pharmaceutical Co.). The suspended cells were seeded into each well of a 12-well plate in an amount of 0.8 ml/well (corresponding to 8×10^4 cells/well) and incubated in a saturated aqueous vapor with 5% CO2 at 37° C. […]
After having been incubated for 24 hours, the culture medium was removed from the plate by suction, and the cells remained were washed twice with an MEM medium containing 0.6% (v/v) (as final concentration) of FBS. Then, the cells were fed with 0.8 ml of the solution prepared above added to the cells, which were incubated for 2 days.
After the 2 days incubation, the culture medium was removed from the plate by suction, and the cells were fed with 0.8 ml of the solution and were further incubated for 2 days. This operation was repeated once again. Thus, the cells were processed in the medium containing the cytokine activity enhancer for 6 days in total.
After the above-mentioned process, the culture medium was removed from the plate by suction, and the cells were fed with 0.8 ml of an MEM medium containing 3 ng/ml of βFGF (produced by Boehringer Manheim Co.) and 0.6% (V/V) FBS, and were incubated for 3 days to obtain a culture supernatant.
3.5 ml of 10 mM Tris-HCl buffer [adjusted at pH 7.8 at 4° C., containing 1 mM calcium chloride and 0.05% (W/V) Brij-35] was added to 500 μl of the thus-obtained culture supernatant, and applied to CM-Sepharose CL-6B (trade name, produced by Pharmacia Co., having a bed volume of 0.5 ml) as previously equilibrated with the same buffer.
Next, the inhibitor was removed through treatment with 0.5 ml of the same buffer as above but containing 125 mM sodium chloride (4 times in all, 2 ml of the buffer was used in total), and the procollagenase was recovered through treatment with 0.5 ml of the same buffer as above but containing 500 mM sodium chloride (4 times in all, 2 ml of the buffer was used in total). This was used as a test sample.
The test sample was suitably diluted with a buffer for measurement (mentioned above), 25 μl of the thus-diluted sample was mixed with 25 μl of the buffer, 20 μl of a trypsin solution (as prepared by adding trypsin, Type 12 (produced by Sigma Co.) to the buffer at a concentration of 1 mg/ml) was added thereto, and this was incubated at 35° C. for 5 minutes. Then, 30 μl of a soybean trypsin inhibitor solution (as prepared at a concentration of 3 mg/ml, using the buffer) was added to this to thereby inactivate the trypsin. The resulting solution is designated collagenase solution.
Using type I collagen as labeled with fluorescein isothiocyanate (hereinafter referred to as FITC) (this is an acetic acid solution of FITC-collagen having a concentration of 1 mg/ml; produced by Cosmo-Bio Co.), as a substrate solution, the collagenase activity (unit/ml) of the solution was measured according to the method of Nagai et al. (see Inflammations, Vol. 4, No. 2, p. 123, 1984). […] The procollagenase production (unit/ml of culture medium) was thus obtained and referred to as X1.

Series [2] has the same test system. The experiment in a line: Response to PDGF: procollagenase production by normal human fibroblasts (Test Example 11). The class given is cell-based. The following applies: 1 mM, 6 days, 30 ng/ml PDGF-BB. Here is the method:
(§1) Normal human fibroblasts [CCD45SK (ATCC CRL 1506) as prepared from the skin of a person] were suspended at a cell density of 1×10^5 cells/ml in the MEM medium, comprising 10% (V/V) FBS and 1% (V/V) non-essential amino acids (produced by Dai-Nippon Pharmaceutical Co.). The suspended cells were seeded into each well of a 12-well plate in an amount of 0.8 ml/well (corresponding to 8×10^4 cells/well) and incubated in a saturated aqueous vapor with 5% CO2 at 37° C.

For series [3] the test system is unchanged. The experiment in a line: Response to TGF-β1: TIMP production by normal human fibroblasts (Test Examples 12-13). The class given is cell-based. Conditions: Test Example 12, 1 mM, 6 days, 3 ng/ml TGF-β1, 3 days. On the procedure:
as §1

The test system of series [4] is Japanese native, male house rabbits. The following applies: rabbit, in vivo. On the procedure:
Aqueous solutions of N-methyl-L-serine, ethanolamine and N-methylethanolamine that had been adjusted to have a pH 7 with hydrochloric acid were used as test samples.
Using Japanese native, male house rabbits (body weight: about 3 kg), the test samples were tested according to the above-mentioned the Draize method.
Precisely, the back of each rabbit was shaven and rubbed to form a scratched site (scratched skin). An adhesive tape for patch test (1.2×1.6 cm; Ribbon Aid, registered trade mane, produced by River Tape Chemicals Co.) as wetted with 0.1 ml of water, or 0.1 ml of an aqueous 1% (W/V) solution of the test compound was stuck onto the scratched skin and the normal skin. […] In addition, 48 hours after the peeling of the tape, the condition of the skin was also observed.
The scores as referred to in Table 21 were obtained, and the primary stimulation score was calculated according to the following equation.
Primary Stimulation Score=[(A+B)/2]+[(C+D)/2]+[(E+F)/2]+[(G+H)/2]
Next, from the primary stimulation scores, obtained was the degree of stimulation with N-Methyl-L-Serine or Ethanolamine or N-Methylethanolamineaccording to the criteria shown in Table 22 below.

As for `CN[C@@H](CO)C(=O)O` [Example 1, N-methyl-L-serine], the “concentration dependence of increase in procollagenase production / response to βFGF” value in series [1] (0.01 to 10 mM) is “in a concentration-dependent manner”. The activity at 1000 µM in series [1] (144 h, Test Example 1, 1 mM, 6 days, 3 ng/ml βFGF, control (purified water) = 100) amounted to 220%; in series [1] (Test Example 2, 0.01 mM, control = 100) it was 100%; in series [1] (Test Example 2, 1.0 mM, control = 100) it was 130%; in series [2] (Homo sapiens, Fibroblast, 144 h, control = 100, read-out: Response to PDGF Increment), 690%; in series [3] (Homo sapiens, Fibroblast, control = 100, read-out: Response to TGF-β1 Increment) it was 240%. Further, the “Procollagenase Production” value was determined as 15 ± 1.0 unit/ml in series [1] (Test Example 1, 1 mM, 6 days, 3 ng/ml βFGF); 15 ± 3.3 unit/ml in series [1] (Test Example 2, 0.01 mM); 17 ± 2.9 unit/ml in series [1] (Test Example 2, 0.1 mM); 24 ± 3.5 unit/ml in series [1] (Test Example 2, 0.3 mM); 19 ± 1.3 unit/ml in series [1] (Test Example 2, 1.0 mM); 26 ± 1.5 unit/ml in series [1] (Test Example 2, 3.0 mM). In addition, the “Procollagenase Production” value turned out to be 32 ± 2.2 unit/ml in series [1] (Test Example 2, 10 mM) and 4.2 ± 2.0 unit/ml in series [2] (mean ± SD, n = 3). Also, in series [3] (mean ± SD, n = 3), the “TIMP Production” value came out at 240 ± 21 unit/ml. Besides, the “Primary Stimulation Score” value in series [4] is listed as 0. Moreover, the “stimulation to the skin (in words)” value in series [4] is listed as “low”.
